Data as given in PMC7339578, “Multiple circulating alkaloids and saponins from intravenous Kang-Ai injection inhibit human cytochrome P450 and UDP-glucuronosyltransferase isozymes: potential drug–drug interactions” (Chinese Medicine, 2020).
Like-named read-outs stand apart in the source and are kept apart here.

Columns and labels:
[1] = Urinary (renal) excretion in rats after a 30-min infusion of Kang-Ai injection; type: in vivo, Sprague–Dawley rats; conditions: Kang-Ai injection 6 mL/kg iv; for fe-U,0–12h (fraction of dose excreted into urine): rat urine 0–12 h; for CL renal: male, Sprague-Dawley, rat, read-out: CLR (renal excretory clearance) (converted)
Procedure: (§1) For urine sampling, the rats were housed singly in metabolic cages. And then, the urine samples were collected at 0–4, 4–8 and 8–12 h after starting infusion and were weighed. Likewise, bile samples were also collected at 0–3, 3–6, 6–9 and 9–12 h after starting infusion and were weighed. The urine and bile collection tubes were all frozen at − 80 °C.
(§2) Pharmacokinetic parameters were estimated by non-compartmental analysis using WinNonlin 6.3 software (Pharsight, NC, US). Data are presented as the mean ± SD (n = 3). The area under the concentration–time curve up to the last measured point in time (AUC0-t) was calculated using the trapezoidal rule. The total plasma clearance (CLtot, p) was calculated by dividing the compound dose by the AUC0-∞, and the distribution volume at steady state (VSS) was estimated by multiplying the CLtot, p by the mean residence time (MRT). The renal excretory clearance (CLR) and hepatobiliary (CLB) was determined by dividing the cumulative amount excreted into urine (Cum.Ae-U) and bile (Cum.Ae-B) by the plasma AUC0-∞, respectively. The fractions of dose excreted into urine (fe-U) and the fractions of dose excreted into bile (fe-B) were established using the relationship Cum.Ae-U/Dose and Cum.Ae-B/Dose, respectively. Mean differences between treatment and control groups were analyzed by two-tailed unpaired Student’s t test by Graphpad Prism V5 software (SanDiego, CA). The level of significance was set at p < 0.05 (∗), p < 0.01 (∗∗) or p < 0.001 (∗∗∗).

[2] = Protein binding assay (equilibrium dialysis); type: in vitro ADME, rat
Procedure: Binding of circulating alkaloids and saponins to rat plasma was measured by equilibrium dialysis using Spectra/Por 2 dialysis membranes (molecular weight cutoff, 12–14 kDa; Rancho Dominguez, CA, USA) as described. After equilibrating for 24 h at 55 rpm and 37 °C, the dialysate and the plasma were sampled for analysis. […] The concentrations of tested matrine, oxysophocarpine and oxymatrine were 2 μmol/L, while those of astragaloside IV, III, and ginsenosides Rh1, Rg2, Rg1, Rf, Re, Rd, Rc, Rb1, Rb2, notoginsenosides R1, R2, were 4 μmol/L. The unbound fraction (fu-plasma) in rat plasma was calculated as follow: fu-plasma = Cd/Cp × 100%, where the Cd and Cp values were the concentrations of each analyte in the dialysate sample and in the post-dialysis plasma sample, respectively.

[3] = Biliary (hepatobiliary) excretion in rats after a 30-min infusion of Kang-Ai injection; type: in vivo, Sprague–Dawley rats; conditions: rat bile 0–12 h; Kang-Ai injection 6 mL/kg iv
Procedure: as §1, §2

[4] = Plasma pharmacokinetics in rats after a 30-min intravenous infusion of Kang-Ai injection; type: in vivo, Sprague–Dawley rats
Procedure: Specific pathogen free (SPF) grade male Sprague–Dawley rats (250 ± 20) g were provided by the Experimental Animal Center of Zhengzhou University (Zhengzhou, China). These rats were kept in a designated animal room at constant temperature (22 ± 2) °C and humidity (50 ± 20) % with 12 h of light/dark per day and free access to water and food. All protocols of animal experiments were approved in accordance with the Regulations of Experimental Animal Administration issued by the Ethics Review Committee for Animal Experimentation of Jinan University (Ethical Review NO. 20190301010). Prior to the experiments, the rats were fasted for 12 h but with free access to water. After study use, the rats were euthanized with CO2 gas.
The rats in this study all received a single 30-min intravenous infusion of Kang-Ai injection via the tail veins using TYD01-02 infusion pumps (Lead Fluid, Baoding, China). The dose was derived from the label daily dose of Kang-Ai injection (60 mL/person, once daily) according to dose normalization by body surface area. For plasma pharmacokinetic studies, the rats were randomly received a single intravenous 30 min-bolus dose at 6 mL/kg. Blood samples (100 μL) were collected from the rats’ external jugular veins into heparinized polypropylene tubes at 5, 15, 30, 45 min, and 1, 1.5, 2, 3, 4, 6, 8, 12 h. After gently shaking for 10 s, the blood samples were centrifuged at 13000 g for 10 min to yield plasma samples, which were kept frozen at − 80 °C until analysis.
as §2

[5] = Stability tests of analytes in rat plasma QC samples; type: in vitro ADME; conditions: rat plasma
Procedure: […] The dilution integrity was investigated by analyzing six replicate samples with each analyte, and each analyte were diluted 10-fold with blank rat matrix. Furthermore, the diluted samples were analyzed using freshly prepared calibration curve to calculate RE and RSD, which should be no more than ± 15% as criterion.

[6] = male, Sprague-Dawley, rat, in vivo, iv

Compound | fe-U,0–12h (fraction of dose excreted into urine) [1] [%] | fe-B,0–12h (fraction of dose excreted into bile) [3] [%] | At -80 °C for 48 h, Mean±SD ([5]; nominal conc. 20 nM) [nM] | At -80 °C for 48 h, RE ([5]; nominal conc. 20 nM) [%] | Extracted samples at 8 °C for 18 h, Mean±SD ([5]; nominal conc. 20 nM) [nM] | Extracted samples at 8 °C for 18 h, RE ([5]; nominal conc. 20 nM) [%] | Short-term stability at room temperature for 6 h, Mean±SD ([5]; nominal conc. 20 nM) [nM] | Short-term stability at room temperature for 6 h, RE ([5]; nominal conc. 20 nM) [%] | Three freeze-thaw cycles (-80 °C ↔ 23 °C), Mean±SD ([5]; nominal conc. 20 nM) [nM] | Three freeze-thaw cycles (-80 °C ↔ 23 °C), RE ([5]; nominal conc. 20 nM) [%] | At -80 °C for 48 h, Mean±SD ([5]; nominal conc. 100 nM) [nM] | At -80 °C for 48 h, RE ([5]; nominal conc. 100 nM) [%] | Extracted samples at 8 °C for 18 h, Mean±SD ([5]; nominal conc. 100 nM) [nM] | Extracted samples at 8 °C for 18 h, RE ([5]; nominal conc. 100 nM) [%] | Short-term stability at room temperature for 6 h, Mean±SD ([5]; nominal conc. 100 nM) [nM] | Short-term stability at room temperature for 6 h, RE ([5]; nominal conc. 100 nM) [%] | Three freeze-thaw cycles (-80 °C ↔ 23 °C), Mean±SD ([5]; nominal conc. 100 nM) [nM] | Three freeze-thaw cycles (-80 °C ↔ 23 °C), RE ([5]; nominal conc. 100 nM) [%] | At -80 °C for 48 h, Mean±SD ([5]; nominal conc. 400 nM) [nM] | At -80 °C for 48 h, RE ([5]; nominal conc. 400 nM) [%] | other results
CC(C)=CCC[C@](C)(O[C@@H]1O[C@H](CO)[C@@H](O)[C@H](O)[C@H]1O)[C@H]1CC[C@]2(C)[C@@H]1[C@H](O)C[C@@H]1[C@@]3(C)CC[C@H](O)C(C)(C)[C@@H]3[C@@H](O[C@@H]3O[C@H](CO)[C@@H](O)[C@H](O)[C@H]3O[C@@H]3OC[C@@H](O)[C@H](O)[C@H]3O)C[C@]12C [Compound C8, Notoginsenoside R1] | 72.12 ± 13.01 | 12.00 ± 1.57 | 20.74 ± 0.96 | 8.27 | 19.67 ± 2.39 | -11.85 | 17.74 ± 0.16 | -12.08 | 21.51 ± 1.68 | 12.79 | 98.21 ± 9.98 | 9.58 | 97.66 ± 12.82 | 12.46 | 92.24 ± 4.21 | -10.97 | 97.29 ± 6.47 | -10.11 | 413.01 ± 31.69 | 11.76 | fu-plasma (unbound fraction) ([2]; rat plasma, equilibrium dialysis 24 h, 37 °C, 2 μmol/L alkaloids, 4 μmol/L saponins): 90.36 ± 4.22%; t1/2 ([4]; rat plasma, 30-min iv infusion of Kang-Ai injection 6 mL/kg): 45 ± 9.6 min; Cmax ([4]; rat plasma, 30-min iv infusion of Kang-Ai injection 6 mL/kg, read-out: Cmax): 121 ± 21.1 nM; Extracted samples at 8 °C for 18 h, Mean±SD ([5]; nominal conc. 400 nM): 402.54 ± 33.33 nM; Extracted samples at 8 °C for 18 h, RE ([5]; nominal conc. 400 nM): 9.82%; Short-term stability at room temperature for 6 h, Mean±SD ([5]; nominal conc. 400 nM): 357.29 ± 9.94 nM; Short-term stability at room temperature for 6 h, RE ([5]; nominal conc. 400 nM): -13.09%; Three freeze-thaw cycles (-80 °C ↔ 23 °C), Mean±SD ([5]; nominal conc. 400 nM): 379.04 ± 38.85 nM; Three freeze-thaw cycles (-80 °C ↔ 23 °C), RE ([5]; nominal conc. 400 nM): -14.53%
CC(C)=CCC[C@](C)(O)[C@H]1CC[C@]2(C)[C@@H]1[C@H](O)C[C@@H]1[C@@]3(C)CC[C@H](O)C(C)(C)[C@@H]3[C@@H](O[C@@H]3O[C@H](CO)[C@@H](O)[C@H](O)[C@H]3O[C@@H]3O[C@@H](C)[C@H](O)[C@@H](O)[C@H]3O)C[C@]12C [Compound C5, Ginsenoside Rg2] | 2.23 ± 0.61 | 20.76 ± 3.37 | 19.84 ± 1.04 | -6.64 | 21.07 ± 0.87 | 8.32 | 19.68 ± 2.51 | 12.85 | 21.26 ± 1.22 | 11.13 | 96.95 ± 8.62 | -8.82 | 98.05 ± 6.29 | -8.46 | 87.52 ± 0.79 | -12.97 | 104.41 ± 11.32 | 12.73 | 410.70 ± 32.70 | 8.22 | CL renal ([1]; urine and plasma): 0.0552 mL/min; fraction unbound at 24 h ([2]; rat, plasma): 0.265 ± 0.0328; Cmax [4, 6]: 231 ± 17.4 nM; clearance [4, 6]: 2.63 mL/min; half-life [4, 6]: 586 ± 825 min; AUC(0-t) ([4]; male, Sprague-Dawley, rat, in vivo, iv, AUC0–12h): > 0.1 µM·h; Extracted samples at 8 °C for 18 h, Mean±SD ([5]; nominal conc. 400 nM): 404.47 ± 42.95 nM; Extracted samples at 8 °C for 18 h, RE ([5]; nominal conc. 400 nM): -10.83%; Short-term stability at room temperature for 6 h, Mean±SD ([5]; nominal conc. 400 nM): 361.60 ± 11.46 nM; Short-term stability at room temperature for 6 h, RE ([5]; nominal conc. 400 nM): -11.77%; Three freeze-thaw cycles (-80 °C ↔ 23 °C), Mean±SD ([5]; nominal conc. 400 nM): 374.05 ± 38.03 nM; Three freeze-thaw cycles (-80 °C ↔ 23 °C), RE ([5]; nominal conc. 400 nM): -12.71%
CC(C)=CCC[C@](C)(O)[C@H]1CC[C@]2(C)[C@@H]1[C@H](O)C[C@@H]1[C@@]3(C)CC[C@H](O)C(C)(C)[C@@H]3[C@@H](O[C@@H]3O[C@H](CO)[C@@H](O)[C@H](O)[C@H]3O)C[C@]12C [Compound C1, Ginsenoside Rh1] | 9.59 ± 1.68 | 9.71 ± 0.98 | 22.38 ± 0.33 | 13.76 | 20.79 ± 2.88 | -12.72 | 20.81 ± 2.57 | 13.31 | 20.14 ± 2.50 | -13.10 | 88.26 ± 1.17 | -13.03 | 100.20 ± 11.08 | 12.81 | 92.25 ± 8.56 | -13.70 | 99.91 ± 9.81 | -10.86 | 379.88 ± 25.01 | -9.26 | CL renal ([1]; in vivo): 0.316 mL/min; fraction unbound at 24 h ([2]; rat plasma, equilibrium dialysis 24 h, 37 °C, 2 μmol/L alkaloids, 4 μmol/L saponins, read-out: fu-plasma (unbound fraction)): 0.463 ± 0.0503; Cmax ([4]; male, Sprague-Dawley, in vivo, rat plasma, 30-min iv infusion of Kang-Ai injection 6 mL/kg, read-out: Cmax): 140 ± 20.4 nM; half-life ([4]; male, Sprague-Dawley, in vivo, rat plasma, 30-min iv infusion of Kang-Ai injection 6 mL/kg, read-out: t1/2 (converted)): 26.4 ± 23.4 min; clearance ([4]; male, Sprague-Dawley, in vivo, rat, 30-min iv infusion of Kang-Ai injection 6 mL/kg, Table 1 unit, read-out: CLtot, p (converted)): 3.31 mL/min; Vd ([4]; male, Sprague-Dawley, in vivo, rat, 30-min iv infusion of Kang-Ai injection 6 mL/kg, Table 1 unit, read-out: VSS): 0.0936 ± 0.0456 L; AUC(0-t) ([4]; male, Sprague-Dawley, rat, in vivo, iv, rat plasma, 30-min iv infusion of Kang-Ai injection 6 mL/kg, read-out: AUC0–12h): 0.0912 ± 0.00477 µM·h; Extracted samples at 8 °C for 18 h, Mean±SD ([5]; nominal conc. 400 nM): 424.42 ± 36.39 nM; Extracted samples at 8 °C for 18 h, RE ([5]; nominal conc. 400 nM): 12.32%; Short-term stability at room temperature for 6 h, Mean±SD ([5]; nominal conc. 400 nM): 376.44 ± 26.61 nM; Short-term stability at room temperature for 6 h, RE ([5]; nominal conc. 400 nM): -12.62%; Three freeze-thaw cycles (-80 °C ↔ 23 °C), Mean±SD ([5]; nominal conc. 400 nM): 370.01 ± 38.18 nM; Three freeze-thaw cycles (-80 °C ↔ 23 °C), RE ([5]; nominal conc. 400 nM): -13.77%
